Assays:
[1] = biological target: fibrinolytic enzyme from Southern Copperhead venom (Agkistrodon contortrix contortrix, UniProt P28891); assay: biochemical; type: biochemical, Southern Copperhead snake (A.c. contortrix)
human plasma clot = assay: Plasma clot lysis, human plasma; type: biochemical; conditions: plasmin 1.08 caseinolytic units per milliliter, after twenty-four hours
rabbit plasma clot = assay: Plasma clot lysis, rabbit plasma; type: biochemical; conditions: plasmin 1.08 caseinolytic units per milliliter, after twenty-four hours
fibrin clots = assay: Preliminary in vitro evaluation against fibrin clots in plasma; type: biochemical; conditions: 0.1 mgm purified venom enzyme, or plasmin
azocasein = conditions: pure plasmin, for comparison; cited from earlier work
[2] = test system: purified human plasminogen; assay: Plasminogen activation measured by S-2251 hydrolysis; type: biochemical; conditions: aliquots of the venom enzyme-plasminogen mixture treated with streptokinase
[3] = test system: autologous or human clots; assay: Streptokinase regimens in animal clot models; type: in vivo, dogs, pigs, and rabbits; conditions: increasing the rate of streptokinase infusion

fibrinolytic enzyme from Southern Copperhead venom, sequence (P28891 whole entry, looked up): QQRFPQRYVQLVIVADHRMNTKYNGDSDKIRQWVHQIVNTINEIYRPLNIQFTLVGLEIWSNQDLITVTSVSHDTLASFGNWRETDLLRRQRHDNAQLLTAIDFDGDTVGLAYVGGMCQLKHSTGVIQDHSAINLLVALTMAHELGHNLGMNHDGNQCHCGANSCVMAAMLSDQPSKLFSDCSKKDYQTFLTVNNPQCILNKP

## O=C(O)CN(CCN(CC(=O)O)CC(=O)O)CC(=O)O [EDTA]
[1]
  Inhibition of the venom fibrinolytic enzyme (in words): inhibited
[1]; read-out: Inhibition of Azocaseinolytic Activity
  inhibition at 50000 µM: 92%

## c1cnc2c(c1)ccc1cccnc12 [o-phenanthroline]
[1]
  Inhibition of the venom fibrinolytic enzyme (in words): inhibited

## O=C(O)c1cc[c]([Hg][Cl])cc1 [p-Chloromercuribenzoate]
[1]
  Inhibition of the venom fibrinolytic enzyme (in words): not inhibited

## plasmin
Human plasma clot
  Plasma clot lysis: did not lyse
Rabbit plasma clot
  Plasma clot lysis: did not lyse
Fibrin clots
  Fibrin clot lysis in plasma clotted with thrombin: no fibrin clot lysis
azocasein
  Plasmin activity: 30-35 units per mg

## streptokinase
[2]
  S-2251 hydrolyzing activity (plasmin formed): hydrolyzing activity was generated
[3]
  Acceleration of clot lysis: ineffective in significantly accelerating clot lysis

## α2 -Macroglobulin
[1]
  Inhibition of Azocaseinolytic Activity: 95%
  Inhibition of the venom fibrinolytic enzyme (in words): inhibits
